Source: patent publication US9832996B2, “Use of sarmentine and its analogues with an herbicide, and compositions thereof” (Marrone Bio Innovations, Inc., priority 2013, dated 2017)

Legend:
Type in all cases: in vivo
Details in all cases: 14 days after application
Festuca arundinacea = assay: Post-emergent spray of sarmentine and amicarbazone on grass seedlings, fresh weight and Colby synergy
Procedure: (§1) Post-emergent effects of sarmentine and amicarbazone were evaluated on annual bluegrass (Poa annua), Kentucky bluegrass (Poa pratensis), Perennial ryegrass (Lolium perenne), Tall fescue (Festuca arundinacea) and Creeping Bentgrass (Agrostis stolonifera). For each of the five species tested, fifteen seedlings at the 1-2 leaf stage, in 2.5 cm square pots containing plant growth mix, were sprayed with two suboptimal doses of sarmentine, two suboptimal doses of amicarbazone, or a factorial combination thereof, as shown in Tables 4-8. A volume of 40 gal/Acre was applied, using a cabinet track sprayer. Negative controls were sprayed with water. Pots were randomly placed in a growth room at 25° C. and 50% relative humidity, and watered as necessary. Treatments were arranged in a 2 k factorial design with three repeat measures and evaluated for fresh weight at 14 days after application. Potential synergy was evaluated by calculating the ratio of observed (E) to expected (Ee) percent of control weight, according to Colby's formula. Colby (1967) Weeds 15:20-22. Percent control was calculated in relation to the untreated control (0% control) with 100% control denoting no living green tissue remaining at 14 days after treatment. An E/Ee score above 1.0 indicates a synergistic interaction between two substances.

Poa annua [1] = assay: as above
Procedure: as §1

Poa pratensis [2] = assay: as above
Procedure: as §1

Lolium perenne = assay: as above
Procedure: as §1

Agrostis stolonifera [3] = assay: as above
Procedure: as §1

Poa annua [4] = assay: Post-emergent spray of sarmentine and paclobutrazol on grass seedlings, fresh weight and Colby synergy
Procedure: as §1, with “paclobutrazol” for “amicarbazone”, “pratensis),” for “pratensis), Perennial ryegrass (Lolium perenne), Tall fescue (Festuca arundinacea)”, “three” for “five”, “paclobutrazol,” for “amicarbazone,”, “1-3.” for “4-8.”

Poa pratensis [5] = assay: as above
Procedure: as §1, with “paclobutrazol” for “amicarbazone”, “pratensis),” for “pratensis), Perennial ryegrass (Lolium perenne), Tall fescue (Festuca arundinacea)”, “three” for “five”, “paclobutrazol,” for “amicarbazone,”, “1-3.” for “4-8.”

Agrostis stolonifera [6] = assay: as above
Procedure: as §1, with “paclobutrazol” for “amicarbazone”, “pratensis),” for “pratensis), Perennial ryegrass (Lolium perenne), Tall fescue (Festuca arundinacea)”, “three” for “five”, “paclobutrazol,” for “amicarbazone,”, “1-3.” for “4-8.”

[7] = paclobutrazol 0.0467 mg/ml alone
[8] = paclobutrazol 0.293 mg/ml alone
[9] = paclobutrazol 0.042 mg/ml alone
[10] = paclobutrazol 0.481 mg/ml alone

## CC(C)c1nn(C(=O)NC(C)(C)C)c(=O)n1N [Amicarbazone]
Festuca arundinacea; amicarbazone 0.315 mg/ml alone
  % Control: 8.1%
  AVG Fresh Weight: 2.3 g
Festuca arundinacea; amicarbazone 1.228 mg/ml alone
  % Control: 10.2%
  AVG Fresh Weight: 2.2 g
Poa annua [1]; amicarbazone 1.53 mg/ml alone
  % Control: 39.4%
  Avg Fresh Weight: 0.57 g
Poa annua [1]; amicarbazone 2.79 mg/ml alone
  % Control: 46.0%
  Avg Fresh Weight: 0.51 g
Poa pratensis [2]; amicarbazone 0.31 mg/ml alone
  % Control: 0.0%
  AVG Fresh Weight: 0.84 g
Poa pratensis [2]; amicarbazone 0.544 mg/ml alone
  % Control: 29.1%
  AVG Fresh Weight: 0.56 g
Lolium perenne; amicarbazone 1.03 mg/ml alone
  % Control: 30.9%
  AVG Fresh Weight: 0.96 g
Lolium perenne; amicarbazone 1.903 mg/ml alone
  % Control: 35.7%
  AVG Fresh Weight: 0.89 g
Agrostis stolonifera [3]; amicarbazone 0.251 mg/ml alone
  % Control: 19.6%
  AVG Fresh Weight: 0.56 g
Agrostis stolonifera [3]; amicarbazone 0.481 mg/ml alone
  % Control: 29.7%
  AVG Fresh Weight: 0.49 g

## CCCCC/C=C/C=C/C(=O)N1CCCC1 [Sarmentine, N-(2E,4E-Decadienoyl) pyrrolidine]
Festuca arundinacea; sarmentine 10.27 mg/ml alone
  % Control: 28.4%
  AVG Fresh Weight: 1.8 g
Festuca arundinacea; sarmentine 33.98 mg/ml alone
  % Control: 40.4%
  AVG Fresh Weight: 1.5 g
Poa annua [1]; sarmentine 12.47 mg/ml alone
  % Control: 10.3%
  Avg Fresh Weight: 0.85 g
Poa annua [1]; sarmentine 17.11 mg/ml alone
  % Control: 23.0%
  Avg Fresh Weight: 0.73 g
Poa pratensis [2]; sarmentine 19.15 mg/ml alone
  % Control: 9.6%
  AVG Fresh Weight: 0.72 g
Poa pratensis [2]; sarmentine 23.553 mg/ml alone
  % Control: 9.9%
  AVG Fresh Weight: 0.72 g
Lolium perenne; sarmentine 10 mg/ml alone
  % Control: 17.7%
  AVG Fresh Weight: 1.14 g
Lolium perenne; sarmentine 20 mg/ml alone
  % Control: 10.6%
  AVG Fresh Weight: 1.24 g
Agrostis stolonifera [3]; sarmentine 17.43 mg/ml alone
  % Control: 0.0%
  AVG Fresh Weight: 0.59 g
Agrostis stolonifera [3]; sarmentine 24.72 mg/ml alone
  % Control: 30.8%
  AVG Fresh Weight: 0.48 g
Poa annua [4]; sarmentine 12.47 mg/ml alone
  % Control: 0.0%
  AVG Fresh Weight: 0.71 g
Poa annua [4]; sarmentine 17.114 mg/ml alone
  % Control: 10.0%
  AVG Fresh Weight: 0.54 g
Poa pratensis [5]; sarmentine 19.15 mg/ml alone
  % Control: 11.3%
  AVG Fresh Weight: 0.6 g
Poa pratensis [5]; sarmentine 23.553 mg/ml alone
  % Control: 7.5%
  AVG Fresh Weight: 0.7 g
Agrostis stolonifera [6]; sarmentine 17.43 mg/ml alone
  % Control: 6.4%
  AVG Fresh Weight: 0.63 g
Agrostis stolonifera [6]; sarmentine 24.72 mg/ml alone
  % Control: 20.6%
  AVG Fresh Weight: 0.53 g

## CC(C)(C)[C@@H](O)[C@@H](Cc1ccc(Cl)cc1)n1cncn1 (racemic) [Paclobutrazol]
Poa annua [4]; paclobutrazol 0.84 mg/ml alone
  % Control: 20.8%
  AVG Fresh Weight: 0.48 g
Poa annua [4]; paclobutrazol 1.37 mg/ml alone
  % Control: 7.9%
  AVG Fresh Weight: 0.55 g
Poa pratensis [5]; [7]
  % Control: 14.2%
  AVG Fresh Weight: 0.6 g
Poa pratensis [5]; [8]
  % Control: 0.0%
  AVG Fresh Weight: 0.7 g
Agrostis stolonifera [6]; [9]
  % Control: 0.0%
  AVG Fresh Weight: 0.76 g
Agrostis stolonifera [6]; [10]
  % Control: 2.3%
  AVG Fresh Weight: 0.65 g
